Data as given in patent publication US20220281848A1, “PYRAZOLE-SUBSTITUTED PYRROLIDINONES AS HERBICIDES” (FMC Corporation, priority 2019, published 2022).

System: plants
Experiment: Test D pre-emergence, other plants of Tables D1 and D3
Type: in vivo
Conditions: pre-emergence, 100=total damage, 0=no damage
Summary of the method: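 Seeds treated with herbicide safener; sown in soil; glasshouse, 16 h light, 65% humidity. Sprayed day 1 (pre) or ~day 12 (post). Spray in 0.2% v/v adjuvant. Scored 0–100 damage: 20 DAA pre, 15 d post.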

CN1CC(c2cc(C(F)(F)F)n(C)n2)C(C(=O)Nc2cccc(F)c2C(F)(F)F)C1=O (racemic) [Compound 19]
damage to plant, ALOMY (rate 15, 20 DAA): 0 | damage to plant, AVEFA (rate 15, 20 DAA): 0 | damage to plant, BEAVA (rate 15, 20 DAA): 0 | damage to plant, BROTE (rate 15, 20 DAA): 0 | damage to plant, BRSNN (rate 15, 20 DAA): 0 | damage to plant, CHEAL (rate 15, 20 DAA): 0 | damage to plant, GALAP (rate 15, 20 DAA): 0 | damage to plant, HORVW (rate 15, 20 DAA): 0 | damage to plant, KCHSC (rate 15, 20 DAA): 0 | damage to plant, LOLPE (rate 15, 20 DAA): 0 | damage to plant, POAAN (rate 15, 20 DAA): 0 | damage to plant, POLCO (rate 15, 20 DAA): 0 | damage to plant, SINAR (rate 15, 20 DAA): 0 | damage to plant, STEME (rate 15, 20 DAA): 0 | damage to plant, VERPE (rate 15, 20 DAA): 0 | damage to plant, ALOMY (rate 30, 20 DAA): 0 | damage to plant, AVEFA (rate 30, 20 DAA): 0 | damage to plant, BEAVA (rate 30, 20 DAA): 0 | damage to plant, BROTE (rate 30, 20 DAA): 0 | damage to plant, BRSNN (rate 30, 20 DAA): 0 | damage to plant, CHEAL (rate 30, 20 DAA): 0 | damage to plant, GALAP (rate 30, 20 DAA): 0 | damage to plant, HORVW (rate 30, 20 DAA): 0 | damage to plant, KCHSC (rate 30, 20 DAA): 0 | damage to plant, LOLPE (rate 30, 20 DAA): 0 | damage to plant, POAAN (rate 30, 20 DAA): 0 | damage to plant, POLCO (rate 30, 20 DAA): 0 | damage to plant, SINAR (rate 30, 20 DAA): 0 | damage to plant, STEME (rate 30, 20 DAA): 0 | damage to plant, VERPE (rate 30, 20 DAA): 0 | damage to plant, ALOMY (rate 60, 20 DAA): 0 | damage to plant, AVEFA (rate 60, 20 DAA): 0 | damage to plant, BEAVA (rate 60, 20 DAA): 0 | damage to plant, BROTE (rate 60, 20 DAA): 0 | damage to plant, BRSNN (rate 60, 20 DAA): 0 | damage to plant, CHEAL (rate 60, 20 DAA): 0 | damage to plant, GALAP (rate 60, 20 DAA): 0 | damage to plant, HORVW (rate 60, 20 DAA): 0 | damage to plant, KCHSC (rate 60, 20 DAA): 0 | damage to plant, LOLPE (rate 60, 20 DAA): 0 | damage to plant, POAAN (rate 60, 20 DAA): 10 | damage to plant, POLCO (rate 60, 20 DAA): 0 | damage to plant, SINAR (rate 60, 20 DAA): 0 | damage to plant, STEME (rate 60, 20 DAA): 0 | damage to plant, VERPE (rate 60, 20 DAA): 0 | damage to plant, ALOMY (rate 130, 20 DAA): 0 | damage to plant, AVEFA (rate 130, 20 DAA): 0 | damage to plant, BEAVA (rate 130, 20 DAA): 0 | damage to plant, BROTE (rate 130, 20 DAA): 0 | damage to plant, BRSNN (rate 130, 20 DAA): 0 | damage to plant, CHEAL (rate 130, 20 DAA): 0 | damage to plant, GALAP (rate 130, 20 DAA): 0 | damage to plant, HORVW (rate 130, 20 DAA): 0 | damage to plant, KCHSC (rate 130, 20 DAA): 0 | damage to plant, LOLPE (rate 130, 20 DAA): 0 | damage to plant, POAAN (rate 130, 20 DAA): 20 | damage to plant, POLCO (rate 130, 20 DAA): 0 | damage to plant, SINAR (rate 130, 20 DAA): 0 | damage to plant, STEME (rate 130, 20 DAA): 0 | damage to plant, VERPE (rate 130, 20 DAA): 0 | damage to plant, ALOMY (rate 250, 20 DAA): 20 | damage to plant, AVEFA (rate 250, 20 DAA): 10 | damage to plant, BEAVA (rate 250, 20 DAA): 0 | damage to plant, BROTE (rate 250, 20 DAA): 10 | damage to plant, BRSNN (rate 250, 20 DAA): 0 | damage to plant, CHEAL (rate 250, 20 DAA): 10 | damage to plant, GALAP (rate 250, 20 DAA): 0 | damage to plant, HORVW (rate 250, 20 DAA): 0 | damage to plant, KCHSC (rate 250, 20 DAA): 0 | damage to plant, LOLPE (rate 250, 20 DAA): 30 | damage to plant, POAAN (rate 250, 20 DAA): 80 | damage to plant, POLCO (rate 250, 20 DAA): 0 | damage to plant, SINAR (rate 250, 20 DAA): 0 | damage to plant, STEME (rate 250, 20 DAA): 10 | damage to plant, VERPE (rate 250, 20 DAA): 60 | damage to plant, ALOMY (rate 500, 20 DAA): 70 | damage to plant, AVEFA (rate 500, 20 DAA): 70 | damage to plant, BEAVA (rate 500, 20 DAA): 0 | damage to plant, BROTE (rate 500, 20 DAA): 30 | damage to plant, BRSNN (rate 500, 20 DAA): 20 | damage to plant, CHEAL (rate 500, 20 DAA): 20 | damage to plant, GALAP (rate 500, 20 DAA): 0 | damage to plant, HORVW (rate 500, 20 DAA): 20 | damage to plant, KCHSC (rate 500, 20 DAA): 0 | damage to plant, LOLPE (rate 500, 20 DAA): 80 | damage to plant, POAAN (rate 500, 20 DAA): 80 | damage to plant, POLCO (rate 500, 20 DAA): 10 | damage to plant, SINAR (rate 500, 20 DAA): 0 | damage to plant, STEME (rate 500, 20 DAA): 60 | damage to plant, VERPE (rate 500, 20 DAA): 70
